Data on 1 molecule can be found in patent publication US20100239498A1, “METHOD OF MAINTAINING THE FUNCTION OF LIVER TISSUE CELLS OVER LONG TIME” (priority 2006, published 2010).

This data set concerns CYP1A. As to the kind of experiment: CYP1A induction in transplanted murine subcutaneous hepatic tissue, tissue staining (Example 3). The format is in vivo, mouse. As to conditions: 120 days after transplantation; intraperitoneal once a day for three days; tissue staining 24 hours after final administration. As for the experimental part:
The murine hepatic tissue cell sheet as obtained in Example 1 was transplanted by application into a murine subcutaneous site having undergone the induction of angiogenesis in accordance with the method of transplanting a hepatic cell sheet as shown in Example 1. One hundred twenty days after transplantation, 3-methylcholantrene (Sigma-Aldrich, St. Louis, Mo.) was intraperitoneally administered once a day and continuously for three days, and 24 hours after the final administration, the mouse was killed and the hepatic tissue prepared was subjected to tissue staining (Example 3). […] Further, CYP1A means CYP1A activity.

Consider `Cc1ccc2cc3c(ccc4ccccc43)c3c2c1CC3` [3-methylcholantrene], for which the “induction of CYP1A (CYP1A activity) in prepared murine subcutaneous hepatic tissue” value is reported as “strongly induced”.
